Measurements published in ChEMBL document CHEMBL1155921, “Synthesis and biological evaluation of novel 1-O- and 14-O-derivatives of oridonin as potential anticancer drug candidates” (Bioorg Med Chem Lett, 2008).

Key:
A549 = assay: Cytotoxicity against human A549 cells by MTT assay; type: functional, cell-based
[1] = Cytotoxicity against human BGC-7901 cells by MTT assay; type: functional, cell-based
SW480 = assay: Cytotoxicity against human SW480 cells by MTT assay; type: functional, cell-based
HL-60 = assay: Cytotoxicity against human HL60 cells by MTT assay; type: functional, cell-based
Bel-7402 = assay: Cytotoxicity against human BEL-7402 cells by MTT assay; type: functional, cell-based
B16 [2] = assay: Cytotoxicity against mouse B16 cells by MTT assay; type: functional, cell-based
H22 [3] = assay: Antitumor activity in mouse H22 cell xenografted mouse at 20 mg/kg/day, ip after 4 days; type: functional; conditions: 96 h, route intraperitoneal
B16 [4] = assay: Antitumor activity in mouse B16 cell xenografted mouse at 20 mg/kg/day, ip after 4 days; type: functional; conditions: 96 h, route intraperitoneal
B16 [5] = assay: Antitumor activity in mouse B16 cell xenografted mouse at 20 mg/kg/day, iv after 4 days; type: functional; conditions: B16, 96 h
H22 [6] = assay: Antitumor activity in mouse H22 cell xenografted mouse at 20 mg/kg/day, iv after 4 days; conditions: 96 h, read-out: INH

| SMILES | IC50 (A549) [µM] | IC50 [1] [µM] | IC50 (SW480) [µM] | IC50 (HL-60) [µM] | IC50 (Bel-7402; read-out: IC50) [µM] | IC50 (B16 [2]) [µM] | inhibition in vivo at 20 mg/kg/day (H22 [3]) [%] | inhibition in vivo at 20 mg/kg/day (B16 [4]) [%] | IC50 (Bel-7402) [µM] | inhibition in vivo at 20 mg/kg/day (B16 [5]) [%] | inhibition in vivo at 20 mg/kg/day (H22 [6]) [%] |
| --- | --- | --- | --- | --- | --- | --- | --- | --- | --- | --- | --- |
| C=C1C(=O)[C@]23[C@H](O)[C@H]1CC[C@H]2[C@@]12CO[C@]3(O)[C@@H](O)[C@@H]1C(C)(C)CC[C@@H]2O [ORIDONIN] | 27.2 | 28.3 | 31.4 | 32.8 | 39.8 | 26.2 | 42.7 | 45.9 | – | – | – |
| C=C1C(=O)[C@]23[C@H](OC(=O)CNC(=O)/C=C/C(=O)O)[C@@H]1CC[C@H]2[C@@]12CO[C@]3(O)[C@@H](O)[C@@H]1C(C)(C)CC[C@@H]2OC(C)=O | 2.6 | 2.78 | 2.6 | 0.84 | 1 | 0.93 | 64.9 | 69.9 | – | – | – |
| C=C1C(=O)[C@]23[C@H](OC(=O)CNC(=O)CCCCC(=O)O)[C@@H]1CC[C@H]2[C@@]12CO[C@]3(O)[C@@H](O)[C@@H]1C(C)(C)CC[C@@H]2OS(=O)(=O)CCC | 14 | 15.3 | 11.2 | 9.5 | 24.8 | 13 | – | – | – | – | – |
| C=C1C(=O)[C@]23[C@H](OC(=O)CNC(=O)c4ccccc4C(=O)O)[C@@H]1CC[C@H]2[C@@]12CO[C@]3(O)[C@@H](O)[C@@H]1C(C)(C)CC[C@@H]2OS(=O)(=O)CCC | 22.7 | 20.9 | 25.4 | 13.8 | 39.1 | 17.6 | – | – | – | – | – |
| C=C1C(=O)[C@]23[C@H](OC(=O)CNC(=O)CCCCC(=O)O)[C@@H]1CC[C@H]2[C@@]12CO[C@]3(O)[C@@H](O)[C@@H]1C(C)(C)CCC2=O | 7.47 | 15.1 | 10.2 | 8.65 | 13.8 | 16.4 | – | – | – | – | – |
| C=C1C(=O)[C@]23[C@H](OC(=O)C(Cc4ccccc4)NC(=O)CCC(=O)O)[C@@H]1CC[C@H]2[C@@]12CO[C@]3(O)[C@@H](O)[C@@H]1C(C)(C)CCC2=O (stereo partly specified) | 17.1 | 5.96 | 12.9 | 2.31 | 6.5 | 14.8 | 59.1 | 56.6 | – | – | – |
| C=C1C(=O)[C@]23[C@H](OC(=O)C(Cc4ccccc4)NC(=O)CCCCC(=O)O)[C@@H]1CC[C@H]2[C@@]12CO[C@]3(O)[C@@H](O)[C@@H]1C(C)(C)CCC2=O (stereo partly specified) | 8.06 | 7.05 | 7.3 | 6.24 | 12.8 | 13.9 | – | – | – | – | – |
| O=c1[nH]cc(F)c(=O)[nH]1 [FLUOROURACIL] | 10.8 | 16.4 | 13.2 | 21.4 | – | 8.73 | – | – | 14.4 | 73.5 | – |
| C=C1C(=O)[C@]23[C@H](OC(=O)CNC(=O)CCCCC(=O)O)[C@@H]1CC[C@H]2[C@@]12CO[C@]3(O)[C@@H](O)[C@@H]1C(C)(C)CC[C@@H]2OC(C)=O | 10.5 | 13.2 | 10.7 | 5.3 | 8.26 | 12.5 | – | – | – | – | – |
| C=C1C(=O)[C@]23[C@H](OC(=O)C(N)Cc4ccccc4)[C@@H]1CC[C@H]2[C@@]12CO[C@]3(O)[C@@H](O)[C@@H]1C(C)(C)CCC2=O (stereo partly specified) | 22.2 | 10.5 | 15 | 27.5 | 29.6 | 10.2 | – | – | – | – | – |
| C=C1C(=O)[C@]23[C@H](OC(=O)C(Cc4ccccc4)NC(=O)/C=C/C(=O)O)[C@@H]1CC[C@H]2[C@@]12CO[C@]3(O)[C@@H](O)[C@@H]1C(C)(C)CCC2=O (stereo partly specified) | 3.46 | 3.02 | 2.89 | 2.07 | 1 | 8.22 | 62.5 | 61.2 | – | – | – |
| C=C1C(=O)[C@]23[C@H](OC(=O)CN)[C@@H]1CC[C@H]2[C@@]12CO[C@]3(O)[C@@H](O)[C@@H]1C(C)(C)CCC2=O | 20.6 | 20.9 | 28.4 | 24.8 | 30.3 | 19.1 | – | – | – | – | – |
| C=C1C(=O)[C@]23[C@H](OC(=O)CN)[C@@H]1CC[C@H]2[C@@]12CO[C@]3(O)[C@@H](O)[C@@H]1C(C)(C)CC[C@@H]2OS(=O)(=O)CCC | 16.3 | 15.9 | 24.7 | 19.8 | 20.2 | 21.7 | – | – | – | – | – |
| O=P1(N(CCCl)CCCl)NCCCO1 (stereo unspecified) [CYCLOPHOSPHAMIDE ANHYDROUS] | – | – | – | – | – | – | – | – | – | – | 54.3 |
| C=C1C(=O)[C@]23[C@H](OC(=O)CNC(=O)/C=C/C(=O)O)[C@@H]1CC[C@H]2[C@@]12CO[C@]3(O)[C@@H](O)[C@@H]1C(C)(C)CC[C@@H]2OS(=O)(=O)CCC | 1.33 | 5.52 | 14.7 | 1.97 | 19.1 | 5.66 | – | – | – | – | – |
| C=C1C(=O)[C@]23[C@H](OC(=O)CNC(=O)CCC(=O)O)[C@@H]1CC[C@H]2[C@@]12CO[C@]3(O)[C@@H](O)[C@@H]1C(C)(C)CCC2=O | 11.5 | 15.6 | 10.2 | 7.76 | 2.09 | 8.57 | – | – | – | – | – |
| C=C1C(=O)[C@]23[C@H](OC(=O)CN)[C@@H]1CC[C@H]2[C@@]12CO[C@]3(O)[C@@H](O)[C@@H]1C(C)(C)CC[C@@H]2OC(C)=O | 11 | 18.2 | 22.3 | 12.3 | 17.9 | 12.4 | – | – | – | – | – |
